Data published in article PMC11542186, “Pin1 WW Domain Ligand Library Synthesized with an Easy Solid-Phase Phosphorylating Reagent” (Biochemistry, 2024).
Where a SMILES comes first, the peptide text is derived from it. [ ]: non-standard residue; d: D form. The star is where a group is joined. pS = N[CH](COP(=O)(O)O)C(=O)O; Agmatine = N=C(N)NCCCCN*; Morpholide = C1CN(*)CCO1; Piperidide = C1CCN(*)CC1; Pyrrolidide = C1CCN(*)C1

Molecular target: T1, Pin1 WW domain (Pin1–HRP) (Homo sapiens, UniProt Q13526)
T1 construct: purchased R&D Systems
T1 sequence (Q13526 whole entry, the tested form may be a part): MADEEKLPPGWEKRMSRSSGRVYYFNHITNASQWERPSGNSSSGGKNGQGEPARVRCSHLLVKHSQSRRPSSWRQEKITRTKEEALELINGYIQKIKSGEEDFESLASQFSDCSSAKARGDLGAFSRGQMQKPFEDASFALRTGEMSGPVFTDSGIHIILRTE
Assay: ELEBA primary screening assay of the library
Type: binding
Conditions: separate plate of groups A and B (L2 control 85.0443); crude library members; DMSO = 100%; mean of N = 2
Protocol: The library was screened by the ELEBA we reported previously.[44] The crude products resulting from diethyl ether precipitation were used for the primary and secondary ELEBA without additional purification. The concentrations of the crude products were estimated based on quantitative yields; actual concentrations were thus lower, depending on yield and purity. The library products were dissolved in DMSO as stock solutions for assays. […] Recombinant human Pin1 conjugated to horseradish peroxidase (Pin1–HRP) was used in the binding assays.[44] Fmoc-VPRpTPVGGGK-NH2 L2 was used as the positive control and DMSO was used as the negative control on each plate. The percent of Pin1–HRP bound to the plate was calculated by normalizing the binding with DMSO to be 100%. In the primary assays (Figure S1), 14 of the best library members were identified: 1{2,d}, 1{18,f}, 1{20,f}, 1{10, l}, 1{13, l}, 1{18, l}, 1{20, l}, 1{10, n}, 1{18, n}, 1{19, n}, 1{2, n}, 1{20, n}, 1{14, o}, 1{3, o}. In the secondary assay, these ligands were measured again at 270 μM, and three hits, 1{2, d}, 1{18, l} and 1{2, n}, were chosen for further analysis (Figure 3).
The Pin1 WW domain ligand, Fmoc–VPRpTPVGGGK–NH2, (100 μL/well, 245 μM stock solution) was covalently attached to a 96-well plate through the ε-amino group of the Lys side chain at pH 11.0, as published.[44] Ligands were dissolved in DMSO at stock concentrations of ca. 50 mM by weight. Competitive binding with plate-linked Fmoc–VPRpTPVGGGK–NH2L1 of pSer–Pro dipeptides was measured at ca. 600 μM for primary screening. In the primary assays, all library members were screened with the crude products. 1{1-21, d} were measured as mixtures of cis- and trans-isomers. Library members synthesized from racemic reagents, such as 1{1-21, c}, 1{1-21, l}, 1{1-21, q}, 1{3, a-q} and 1{8, a-q} were measured as diastereomeric mixtures. The library members were dissolved in DMSO as stock solutions with a concentration of about 37 mM based on estimated yields. The DMSO stock solution of each compound (4 μL) was added into a solution of recombinant Pin1–HRP (R&D Systems) in a PBS buffer with 2% BSA (pH = 7.3). DMSO (4 μL) was used as a negative control. The final volume of the solution was 250 μL, the final concentration of Pin1–HRP was 200 pM, and the estimated final compound concentration was 590 μM. The resulting solution was preincubated for 30 min at ambient temperature, and was added into two wells (100 μL each, for assay in duplicate) of the ligand-linked plate. The solutions were incubated for another 1 h. The solutions were removed by inverting and shaking the plate, and the plate was washed with buffer ([…], and 0.05% Tween 20 in PBS at pH 7.3) three times. A 1:1 solution of hydrogen peroxide and 3,3,5,5′-tetramethylbenzidine (100 μL) was added into each plate well, and incubated in the dark for 20 min. A 2N H2SO4 solution (50 μL) was added to each well to quench the reaction, and the absorbance of was determined at 450 nm. The percentage of Pin1–HRP bound to the plate (% binding) was calculated by eq 1. To calculate the absorbance of a plate well in eq 1, the blank ligand-linked plate was predetermined at the same wavelength, and the absorbance of the blank well was subtracted from the absorbance of the same well containing the final solution. [drawing 2] 1 […]
The Fmoc-Ser(2- […]
cyanoethylphosphate)-OH product was cleaved from the resin with TFA. 1H NMR indicated the presence of the Fmoc group, implying that the substrate was successfully attached to the resin (data not shown). To develop the coupling methods, 2-(2-naphthyl)ethylamine and propionic acid were reacted with the pSer–Pro resin. The resulting propanoyl-pSer–Pro–(2-(2-naphthyl)ethyl)-amide (1H NMR below) was excluded from the library assays.
Figure S1 (following pages). Ligands (group A – O) were screening using ELEBA at ca. 266 µM.
Fmoc-VPRpTPVGGGK-NH2 L2 was used as positive control at 76-87 µM from stock solutions […]
of 4.3-4.8 mM. […]

Row | Structure (SMILES) | % of Pin1-HRP bound to plate-linked ligand
1 | CC(=O)NC(COP(=O)(O)O)C(=O)N1CCCC1C(=O)N(C)CC(C)c1ccccc1 (mixture of isomers) [1{3,a}] | 118.382%
2 | CC(CN(C)C(=O)C1CCCN1C(=O)C(COP(=O)(O)O)NC(=O)C=Cc1c[nH]cn1)c1ccccc1 (mixture of isomers) [1{3,b}] | 124.358%
3 | CC(=O)NC(COP(=O)(O)O)C(=O)N1CCCC1C(=O)NCCCN1CCCCC1C (mixture of isomers) [1{8,a}] | 108.888%
4 | CC1CCCCN1CCCNC(=O)C1CCCN1C(=O)C(COP(=O)(O)O)NC(=O)C=Cc1c[nH]cn1 (mixture of isomers) [1{8,b}] | 102.481%
5 | CC(=O)NC(COP(=O)(O)O)C(=O)N1CCCC1C(=O)N1CCCC1 (centres unmarked) [1{1,a}] (Ac-[pS]-Pro-Pyrrolidide; configuration not given here) | 111.106%
6 | O=C(C=Cc1c[nH]cn1)NC(COP(=O)(O)O)C(=O)N1CCCC1C(=O)N1CCCC1 (centres unmarked) [1{1,b}] | 117.035%
7 | CC(=O)N[C@@H](COP(=O)(O)O)C(=O)N1CCC[C@H]1C(=O)Nc1ccc2[nH]ncc2c1 [1{2,a}] | 115.042%
8 | O=C(C=Cc1c[nH]cn1)NC(COP(=O)(O)O)C(=O)N1CCCC1C(=O)Nc1ccc2[nH]ncc2c1 (centres unmarked) [1{2,b}] | 113.209%
9 | CC(=O)NC(COP(=O)(O)O)C(=O)N1CCCC1C(=O)NCCc1ccc(O)cc1 (centres unmarked) [1{4,a}] | 120.879%
10 | O=C(C=Cc1c[nH]cn1)NC(COP(=O)(O)O)C(=O)N1CCCC1C(=O)NCCc1ccc(O)cc1 (centres unmarked) [1{4,b}] | 124.444%
11 | CC(=O)N[C@@H](COP(=O)(O)O)C(=O)N1CCC[C@H]1C(=O)N(C)CCc1ccccn1 [1{5,a}] | 108.292%
12 | CN(CCc1ccccn1)C(=O)C1CCCN1C(=O)C(COP(=O)(O)O)NC(=O)C=Cc1c[nH]cn1 (centres unmarked) [1{5,b}] | 113.92%
13 | COC(=O)C=C(C)NC(=O)[C@@H]1CCCN1C(=O)[C@H](COP(=O)(O)O)NC(C)=O [1{6,a}] | 116.564%
14 | COC(=O)C=C(C)NC(=O)C1CCCN1C(=O)C(COP(=O)(O)O)NC(=O)C=Cc1c[nH]cn1 (centres unmarked) [1{6,b}] | 111.464%
15 | CCN(CC)CCCCN(C)C(=O)[C@@H]1CCCN1C(=O)[C@H](COP(=O)(O)O)NC(C)=O [1{7,a}] | 99.5048%
16 | CCN(CC)CCCCN(C)C(=O)[C@@H]1CCCN1C(=O)[C@H](COP(=O)(O)O)NC(=O)/C=C/c1c[nH]cn1 [1{7,b}] | 108.279%
17 | CC(=O)NC(COP(=O)(O)O)C(=O)N1CCCC1C(=O)NCCc1c[nH]cn1 (centres unmarked) [1{9,a}] | 109.367%
18 | O=C(C=Cc1c[nH]cn1)NC(COP(=O)(O)O)C(=O)N1CCCC1C(=O)NCCc1c[nH]cn1 (centres unmarked) [1{9,b}] | 117.354%
19 | CC(=O)N[C@@H](COP(=O)(O)O)C(=O)N1CCC[C@H]1C(=O)N1CCN(c2ncccn2)CC1 [1{10,a}] | 102.123%
20 | O=C(C=Cc1c[nH]cn1)NC(COP(=O)(O)O)C(=O)N1CCCC1C(=O)N1CCN(c2ncccn2)CC1 (centres unmarked) [1{10,b}] | 93.9893%
21 | CC(=O)N[C@@H](COP(=O)(O)O)C(=O)N1CCC[C@H]1C(=O)NCCCCCCN [1{11,a}] | 74.9059%

Row | Structure (SMILES) | % of Pin1-HRP bound to plate-linked ligand
22 | NCCCCCCNC(=O)[C@@H]1CCCN1C(=O)[C@H](COP(=O)(O)O)NC(=O)/C=C/c1c[nH]cn1 [1{11,b}] | 79.8617%
23 | CC(=O)NC(COP(=O)(O)O)C(=O)N1CCCC1C(=O)NCCCn1ccnc1 (centres unmarked) [1{12,a}] | 109.194%
24 | O=C(C=Cc1c[nH]cn1)NC(COP(=O)(O)O)C(=O)N1CCCC1C(=O)NCCCn1ccnc1 (centres unmarked) [1{12,b}] | 94.4757%
25 | CC(=O)NC(COP(=O)(O)O)C(=O)N1CCCC1C(=O)N1CCC(N2CCCCC2)CC1 (centres unmarked) [1{13,a}] | 109.315%
26 | O=C(/C=C/c1c[nH]cn1)N[C@@H](COP(=O)(O)O)C(=O)N1CCC[C@H]1C(=O)N1CCC(N2CCCCC2)CC1 [1{13,b}] | 96.4764%
27 | CC(=O)N[C@@H](COP(=O)(O)O)C(=O)N1CCC[C@H]1C(=O)NCCc1c[nH]c2ccccc12 [1{14,a}] | 120.534%
28 | O=C(C=Cc1c[nH]cn1)NC(COP(=O)(O)O)C(=O)N1CCCC1C(=O)NCCc1c[nH]c2ccccc12 (centres unmarked) [1{14,b}] | 109.953%
29 | CC(=O)N[C@@H](COP(=O)(O)O)C(=O)N1CCC[C@H]1C(=O)NC1CCN(Cc2ccccc2)CC1 [1{15,a}] | 110.698%
30 | O=C(C=Cc1c[nH]cn1)NC(COP(=O)(O)O)C(=O)N1CCCC1C(=O)NC1CCN(Cc2ccccc2)CC1 (centres unmarked) [1{15,b}] | 98.3254%
31 | CC(=O)NC(COP(=O)(O)O)C(=O)N1CCCC1C(=O)NCCCCNC(=N)N (centres unmarked) [1{16,a}] (Ac-[pS]-Pro-Agmatine; configuration not given here) | 112.945%
32 | N=C(N)NCCCCNC(=O)[C@@H]1CCCN1C(=O)[C@H](COP(=O)(O)O)NC(=O)/C=C/c1c[nH]cn1 [1{16,b}] | 94.5777%
33 | CC(=O)NC(COP(=O)(O)O)C(=O)N1CCCC1C(=O)NCCCN1CCOCC1 (centres unmarked) [1{17,a}] | 117.069%
34 | O=C(/C=C/c1c[nH]cn1)N[C@@H](COP(=O)(O)O)C(=O)N1CCC[C@H]1C(=O)NCCCN1CCOCC1 [1{17,b}] | 94.8602%
35 | CC(=O)N[C@@H](COP(=O)(O)O)C(=O)N1CCC[C@H]1C(=O)NNC(=O)c1ccco1 [1{18,a}] | 102.518%
36 | O=C(/C=C/c1c[nH]cn1)N[C@@H](COP(=O)(O)O)C(=O)N1CCC[C@H]1C(=O)NNC(=O)c1ccco1 [1{18,b}] | 87.6813%
37 | CC(=O)N[C@@H](COP(=O)(O)O)C(=O)N1CCC[C@H]1C(=O)N1CCCCC1 [1{19,a}] (Ac-[pS]-Pro-Piperidide) | 116.14%
38 | O=C(C=Cc1c[nH]cn1)NC(COP(=O)(O)O)C(=O)N1CCCC1C(=O)N1CCCCC1 (centres unmarked) [1{19,b}] | 97.5722%
39 | CC(=O)N[C@@H](COP(=O)(O)O)C(=O)N1CCC[C@H]1C(=O)N1CCOCC1 [1{20,a}] (Ac-[pS]-Pro-Morpholide) | 115.484%
40 | CC(=O)NC(COP(=O)(O)O)C(=O)N1CCCC1C(=O)NCCc1ccc2ccccc2c1 (centres unmarked) [1{21,a}] | 113.792%
41 | O=C(C=Cc1c[nH]cn1)NC(COP(=O)(O)O)C(=O)N1CCCC1C(=O)NCCc1ccc2ccccc2c1 (centres unmarked) [1{21,b}] | 77.3223%
